This assay deals with T1, IRAK4 (Homo sapiens, UniProt Q9NWZ3).
T1 construct: C-terminal HiBiT-tagged Jurkat cells (polyclonal cell line or clone 8D5); endogenous in cells; host or cells: Jurkat cells (polyclonal cell line or clone 8D5), HiBiT-tagged
T1 sequence (Q9NWZ3 1-460): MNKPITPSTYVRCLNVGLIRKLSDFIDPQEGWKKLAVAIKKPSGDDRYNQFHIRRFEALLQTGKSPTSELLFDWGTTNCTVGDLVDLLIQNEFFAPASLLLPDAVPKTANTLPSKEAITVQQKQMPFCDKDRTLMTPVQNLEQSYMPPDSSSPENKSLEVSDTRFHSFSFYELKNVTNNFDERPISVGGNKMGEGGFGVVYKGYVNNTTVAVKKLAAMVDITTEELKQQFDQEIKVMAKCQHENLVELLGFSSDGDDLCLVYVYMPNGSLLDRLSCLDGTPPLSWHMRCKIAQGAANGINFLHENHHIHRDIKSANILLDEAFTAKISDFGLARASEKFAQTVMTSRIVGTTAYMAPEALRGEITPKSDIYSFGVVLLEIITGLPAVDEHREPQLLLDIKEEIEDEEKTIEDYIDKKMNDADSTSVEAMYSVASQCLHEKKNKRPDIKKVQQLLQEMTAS
In words: IRAK4 Degradation HiBit Assay. The format is cell-based. The following applies: C-terminal HiBiT-tagged Jurkat cells, 4 hrs incubation; for DC50: % IRAK4 remaining, four-parameter fit (IC50 used as DC50); for Dmax: from fit of % IRAK4 remaining, read-out: Dmax. The gist of the method: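 Degradation was quantified by luminescence after adding lytic detection reagent containing LgBiT to HiBiT-tagged Jurkat cells (polyclonal or clone 8D5). Cells were treated 4 h at 32 °C across 11 concentrations from 10 μM to 0.1 nM final. Four-parameter curve fitting of % IRAK4 remaining versus DMSO gave DC50 and Dmax.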
For orientation: The HiBiT peptide binds its large partner to form an active luciferase.

As to `N#Cc1cnn2c(-c3cc(NC4CCOCC4)c(-c4nnc(N5CCN(C(=O)CN6CCc7cc(C8CCC(=O)NC8=O)ccc7C6)CC5)s4)cn3)ccc2c1` (racemic) [Example 66, rac-7-(5-{5-[4-(2-{6-[(3R)-2,6-dioxopiperidin-3-yl]-1,2,3,4-tetrahydroisoquinolin-2-yl}acetyl)piperazin-1-yl]-1,3,4-thiadiazol-2-yl}-4-[(oxan-4-yl)amino]pyridin-2-yl)pyrrolo[1,2-b]pyridazine-3-carbonitrile], the DC50 (commonly the concentration giving 50% degradation) is 8 nM and the Dmax – broadly, the greatest extent of degradation seen – worked out at 110%.

In the case of `N#Cc1cnn2c(-c3cc(NC4CC4)c(-c4nnc(N5CCN(CC6CCN(c7ccc(C8CCC(=O)NC8=O)cn7)CC6)CC5)s4)cn3)ccc2c1` (racemic) [Example 67, rac-7-[4-(cyclopropylamino)-5-(5-{4-[(1-{5-[(3R)-2,6-dioxopiperidin-3-yl]pyridin-2-yl}piperidin-4-yl)methyl]piperazin-1-yl}-1,3,4-thiadiazol-2-yl)pyridin-2-yl]pyrrolo[1,2-b]pyridazine-3-carbonitrile], half-maximal degradation (DC50) was put at 38 nM and the Dmax was 85%.

Consider `CCNc1cc(-c2ccc3cc(C#N)cnn23)ncc1-c1nnc(N2CCN(CC3CCN(c4ccc(C5CCC(=O)NC5=O)cn4)CC3)CC2)s1` (racemic) [Example 68, rac-7-[5-(5-{4-[(1-{5-[(3R)-2,6-dioxopiperidin-3-yl]pyridin-2-yl}piperidin-4-yl)methyl]piperazin-1-yl}-1,3,4-thiadiazol-2-yl)-4-(ethylamino)pyridin-2-yl]pyrrolo[1,2-b]pyridazine-3-carbonitrile], for which it took 187 nM to reach half-maximal degradation (DC50) and the Dmax worked out at 103%.

For the compound `CCNc1cc(-c2ccc3cc(C#N)cnn23)ncc1-c1nnc(N2CCN(CC3CCN(c4ccc(C5CCC(=O)NC5=O)cn4)CC3)CC2)o1` (racemic) [Example 69, rac-7-[5-(5-{4-[(1-{5-[(3R)-2,6-dioxopiperidin-3-yl]pyridin-2-yl}piperidin-4-yl)methyl]piperazin-1-yl}-1,3,4-oxadiazol-2-yl)-4-(ethylamino)pyridin-2-yl]pyrrolo[1,2-b]pyridazine-3-carbonitrile], the DC50 turned out to be 1000 nM and the Dmax is 84%.

As for `CCNc1cc(-c2ccc3cc(C#N)cnn23)ncc1-c1nnc(N2CCN(CC3CCN(c4ccc(C5CCC(=O)NC5=O)cc4)CC3)CC2)s1` (racemic) [Example 70, rac-7-[5-(5-{4-[(1-{4-[(3R)-2,6-dioxopiperidin-3-yl]phenyl}piperidin-4-yl)methyl]piperazin-1-yl}-1,3,4-thiadiazol-2-yl)-4-(ethylamino)pyridin-2-yl]pyrrolo[1,2-b]pyridazine-3-carbonitrile], the DC50 is 42 nM and the Dmax came to 112%.

`CC(C)Nc1cc(-c2ccc3cc(C#N)cnn23)ncc1-c1nnc(N2CC3CCC(C2)N3CC2CCN(c3ccc([C@H]4CCC(=O)NC4=O)cc3)CC2)s1` (racemic) [Example 72, rac-7-[5-(5-{8-[(1-{4-[(3R)-2,6-dioxopiperidin-3-yl]phenyl}piperidin-4-yl)methyl]-3,8-diazabicyclo[3.2.1]octan-3-yl}-1,3,4-thiadiazol-2-yl)-4-[(propan-2-yl)amino]pyridin-2-yl]pyrrolo[1,2-b]pyridazine-3-carbonitrile]: the DC50 amounted to 45 nM and the Dmax stood at 60%.

In the case of `N#Cc1cnn2c(-c3cc(NC4CCOCC4)c(-c4nnc(N5CCN(C6CC7(CCN(c8ccc(C9CCC(=O)NC9=O)cn8)CC7)C6)CC5)s4)cn3)ccc2c1` (racemic) [Example 74, rac-7-(5-{5-[4-(7-{5-[(3R)-2,6-dioxopiperidin-3-yl]pyridin-2-yl}-7-azaspiro[3.5]nonan-2-yl)piperazin-1-yl]-1,3,4-thiadiazol-2-yl}-4-[(oxan-4-yl)amino]pyridin-2-yl)pyrrolo[1,2-b]pyridazine-3-carbonitrile], half-maximal degradation (DC50) was put at 23 nM and the Dmax is 71%.

`C[C@H](C#N)Nc1cc(-c2ccc3cc(C#N)cnn23)ncc1-c1nnc(N2CCN(CC3CCN(c4ccc(C5CCC(=O)NC5=O)cn4)CC3)CC2)s1` (mixture of isomers) [Example 75, 7-(4-{[(1R)-1-cyanoethyl]amino}-5-(5-{4-[(1-{5-[(3RS)-2,6-dioxopiperidin-3-yl]pyridin-2-yl}piperidin-4-yl)methyl]piperazin-1-yl}-1,3,4-thiadiazol-2-yl)pyridin-2-yl)pyrrolo[1,2-b]pyridazine-3-carbonitrile]: the DC50 is 9 nM and the Dmax stood at 111%.

For `CC1(Nc2cc(-c3ccc4cc(C#N)cnn34)ncc2-c2nnc(N3CCN(CC4CCN(c5ccc(C6CCC(=O)NC6=O)cc5)CC4)CC3)s2)COC1` (racemic) [Example 76, rac-7-[5-(5-{4-[(1-{4-[(3R)-2,6-dioxopiperidin-3-yl]phenyl}piperidin-4-yl)methyl]piperazin-1-yl}-1,3,4-thiadiazol-2-yl)-4-[(3-methyloxetan-3-yl)amino]pyridin-2-yl]pyrrolo[1,2-b]pyridazine-3-carbonitrile], the half-maximal degradation concentration (DC50) came to 23 nM and the Dmax was 111%.

Turning to `N#Cc1cnn2c(-c3cc(NC4CC4)c(-c4nnc(N5CCN(CC6CCN(c7ccc(C8CCC(=O)NC8=O)cc7)CC6)CC5)s4)cn3)ccc2c1` (racemic) [Example 77, rac-7-[4-(cyclopropylamino)-5-(5-{4-[(1-{4-[(3R)-2,6-dioxopiperidin-3-yl]phenyl}piperidin-4-yl)methyl]piperazin-1-yl}-1,3,4-thiadiazol-2-yl)pyridin-2-yl]pyrrolo[1,2-b]pyridazine-3-carbonitrile], the DC50 stood at 53 nM and the Dmax came to 90%.

`CNc1cc(-c2ccc3cc(C#N)cnn23)ncc1-c1nnc(N2CCN(CC3CCN(c4ccc(C5CCC(=O)NC5=O)cc4)CC3)CC2)s1` (racemic) [Example 79, rac-7-[5-(5-{4-[(1-{4-[(3R)-2,6-dioxopiperidin-3-yl]phenyl}piperidin-4-yl)methyl]piperazin-1-yl}-1,3,4-thiadiazol-2-yl)-4-(methylamino)pyridin-2-yl]pyrrolo[1,2-b]pyridazine-3-carbonitrile]: the DC50 is 21 nM and the Dmax came out at 115%.

Take `CNc1cc(-c2ccc3cc(C#N)cnn23)ncc1-c1nnc(C2CCN(CC3CCN(c4ccc(C5CCC(=O)NC5=O)cn4)CC3)CC2)s1` (racemic) [Example 81, rac-7-[5-(5-{1-[(1-{5-[(3R)-2,6-dioxopiperidin-3-yl]pyridin-2-yl}piperidin-4-yl)methyl]piperidin-4-yl}-1,3,4-thiadiazol-2-yl)-4-(methylamino)pyridin-2-yl]pyrrolo[1,2-b]pyridazine-3-carbonitrile]: half-maximal degradation (DC50) was put at 10 nM and the Dmax is 116%.

Turning to `CN(CC1CCN(c2ccc([C@@H]3CCC(=O)NC3=O)cn2)CC1)[C@H]1CC[C@H](c2nnc(-c3cnc(-c4ccc5cc(C#N)cnn45)cc3NC3CCOCC3)s2)CC1` (racemic) [Example 82, 7-{4-[(oxan-4-yl)amino]-5-{5-[(1r,4r)-4-{[(1-{5-[(3RS)-2,6-dioxopiperidin-3-yl]pyridin-2-yl}piperidin-4-yl)methyl](methyl)amino}cyclohexyl]-1,3,4-thiadiazol-2-yl}pyridin-2-yl}pyrrolo[1,2-b]pyridazine-3-carbonitrile], it took 8 nM to reach half-maximal degradation (DC50) and the Dmax was 114%.
